The supplement of paper PMC12646585
± gives the uncertainty stated by the source.

Tested on: TK6
Test: relative viability (MTT, 20-24 h post-exposure) vs solvent control; higher = less cytotoxic
Conditions: exposure time: 4 h (S9 compounds: 3 h + 4 h recovery)
Experimental: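 Human TK6 lymphoblastoid cells were exposed for 4 h to three concentrations of each compound at four ring-trial labs. Compounds P, Q, R and CC were given for 3 h with rat liver S9 plus 4 h recovery. Relative survival was measured by MTT assay 20-24 h after exposure, as % viability relative to solvent control (mean with SD), in the Result 1 round with preselected concentrations.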

O=[N+]([O-])c1ccc(O)c([N+](=O)[O-])c1 [2,4-Dinitrophenol]
relative viability [%]
Conditions | batch: 3, lab: Lab 1 | batch: 3, lab: Lab 2 | batch: 3, lab: Lab 3 | batch: 3, lab: Lab 4
concentration: 0.11mM | 92.2 ± 1.2 | 98.2 ± 5 | 71.1 ± 14 | 97.7 ± 3.1
concentration: 0.33mM | 84.7 ± 2.5 | 85 ± 2.5 | 67.4 ± 1.1 | 98.6 ± 8.2
concentration: 1mM | 58.6 ± 2.2 | 37.2 ± 10 | 63.9 ± 1.4 | 99.4 ± 6.2

Nc1ccc2cc3ccccc3cc2c1 [2-Aminoanthracene]
relative viability [%]
Conditions | batch: 4, lab: Lab 1 | batch: 4, lab: Lab 2 | batch: 4, lab: Lab 3 | batch: 4, lab: Lab 4
concentration: 0.22ug/mL | 95.8 ± 6.6 | 97.3 ± 23 | 102 ± 11 | 96.3 ± 3
concentration: 0.67ug/mL | 94.8 ± 3.9 | 87.8 ± 18 | 95.5 ± 8.5 | 93.5 ± 2.5
concentration: 2ug/mL | 47 ± 5.6 | 16.8 ± 1.3 | 23.1 ± 0.8 | 9.75 ± 11

CC1(C)S[C@@H]2[C@H](NC(=O)[C@H](N)c3ccccc3)C(=O)N2[C@H]1C(=O)O [Ampicillin]
relative viability [%]
Conditions | batch: 1, lab: Lab 1 | batch: 1, lab: Lab 2 | batch: 1, lab: Lab 3 | batch: 1, lab: Lab 4
concentration: 0.11mM | 102 ± 5.6 | 104 ± 3 | 115 ± 6.7 | 127 ± 17
concentration: 0.33mM | 94.9 ± 3.7 | 115 ± 8.7 | 123 ± 5.7 | 126 ± 9.4
concentration: 1mM | 99.9 ± 6.3 | 98.3 ± 12 | 121 ± 3.4 | 112 ± 9.2

c1ccc2c(c1)cc1ccc3cccc4ccc2c1c34 [Benzo[a]pyrene]
concentration: 10ug/mL
Conditions | relative viability [%]
batch: 4, lab: Lab 1 | 67.8 ± 2.3
batch: 4, lab: Lab 2 | 35.7 ± 2
batch: 4, lab: Lab 3 | 66.3 ± 0.7
batch: 4, lab: Lab 4 | 75 ± 5.3

Cc1c(N)nc(C(CC(N)=O)NCC(N)C(N)=O)nc1C(=O)NC(C(=O)NC(C)C(O)C(C)C(=O)NC(C(=O)NCCc1nc(-c2nc(C(=O)NCCC[S+](C)C)cs2)cs1)C(C)O)C(O[C@@H]1O[C@@H](CO)[C@@H](O)[C@H](O)[C@@H]1O[C@H]1O[C@H](CO)[C@@H](O)[C@H](OC(N)=O)[C@@H]1O)c1cnc[nH]1.O=S(=O)([O-])O (some centres undefined) [Bleomycin (sulfate)]
Conditions | relative viability [%]
concentration: 5ug/mL, batch: 2, lab: Lab 1 | 80.5 ± 4.2
concentration: 5ug/mL, batch: 2, lab: Lab 2 | 53.4 ± 7.1
concentration: 5ug/mL, batch: 2, lab: Lab 3 | 51 ± 6.2
concentration: 5ug/mL, batch: 2, lab: Lab 4 | 56.4 ± 1.8
concentration: 5ug/mL, batch: 3, lab: Lab 1 | 78 ± 4
concentration: 5ug/mL, batch: 3, lab: Lab 2 | 66 ± 7.1
concentration: 5ug/mL, batch: 3, lab: Lab 3 | 49.7 ± 3.8
concentration: 5ug/mL, batch: 3, lab: Lab 4 | 54.6 ± 2.8
concentration: 10ug/mL, batch: 1, lab: Lab 1 | 41.8 ± 3.7
concentration: 10ug/mL, batch: 1, lab: Lab 2 | 59.6 ± 4.6
concentration: 10ug/mL, batch: 1, lab: Lab 3 | 53 ± 3.7
concentration: 10ug/mL, batch: 1, lab: Lab 4 | 50.6 ± 1.6

Cn1c(=O)c2c(ncn2C)n(C)c1=O [Caffeine]
concentration: 2mM
Conditions | relative viability [%]
batch: 1, lab: Lab 1 | 94.7 ± 2.1
batch: 1, lab: Lab 2 | 86.4 ± 4
batch: 1, lab: Lab 3 | 108 ± 4.5
batch: 1, lab: Lab 4 | 98.2 ± 4.2
batch: 2, lab: Lab 1 | 96.7 ± 1
batch: 2, lab: Lab 2 | 80.1 ± 13
batch: 2, lab: Lab 3 | 88.9 ± 6.5
batch: 2, lab: Lab 4 | 100 ± 7
batch: 3, lab: Lab 1 | 96.4 ± 2.7
batch: 3, lab: Lab 2 | 92.5 ± 5.4
batch: 3, lab: Lab 3 | 107 ± 2.4
batch: 3, lab: Lab 4 | 92.6 ± 11

O=C(O)CCCc1ccc(N(CCCl)CCCl)cc1 [Chlorambucil]
relative viability [%]
Conditions | batch: 3, lab: Lab 1 | batch: 3, lab: Lab 2 | batch: 3, lab: Lab 3 | batch: 3, lab: Lab 4
concentration: 0.44uM | 95.2 ± 3.8 | 84.9 ± 7.7 | 80.8 ± 2.1 | 97.2 ± 12
concentration: 1.33uM | 89.6 ± 3.8 | 95.9 ± 17 | 74.1 ± 1.5 | 92.3 ± 14
concentration: 4uM | 78.9 ± 3.7 | 71.7 ± 8.3 | 67.2 ± 0.8 | 75.3 ± 14

C[C@@H]1C[C@@H]([C@H](O)CC2CC(=O)NC(=O)C2)C(=O)[C@@H](C)C1 [Cycloheximide]
relative viability [%]
Conditions | batch: 1, lab: Lab 1 | batch: 1, lab: Lab 2 | batch: 1, lab: Lab 3 | batch: 1, lab: Lab 4
concentration: 1.11uM | 89.7 ± 6.7 | 85.7 ± 4.6 | 94.1 ± 0.6 | 86.8 ± 5.5
concentration: 3.33uM | 64 ± 7.6 | 65.6 ± 6.2 | 72.2 ± 7.4 | 69.7 ± 4.6
concentration: 10uM | 49.4 ± 6.1 | 46.1 ± 4.8 | 41.3 ± 2.9 | 57.4 ± 5.4

O.O=P1(N(CCCl)CCCl)NCCCO1 (centres undefined) [Cyclophosphamide]
relative viability [%]
Conditions | batch: 4, lab: Lab 1 | batch: 4, lab: Lab 2 | batch: 4, lab: Lab 3 | batch: 4, lab: Lab 4
concentration: 2.22uM | 103 ± 4 | 94.2 ± 9.3 | 157 ± 11 | 80.3 ± 3.9
concentration: 6.67uM | 96.49 ± 0.35 | 69 ± 2.4 | 107 ± 14 | 81.7 ± 1.3
concentration: 20uM | 90.45 ± 0.81 | 47.2 ± 2.1 | 73.4 ± 3.3 | 58.4 ± 3.7

OC[C@@H](O)[C@@H](O)[C@H](O)[C@H](O)CO [D-Mannitol]
relative viability [%]
Conditions | batch: 1, lab: Lab 1 | batch: 1, lab: Lab 2 | batch: 1, lab: Lab 3 | batch: 1, lab: Lab 4
concentration: 0.11mM | 90 ± 3.8 | 97 ± 6.5 | 145 ± 3.4 | 110 ± 6.5
concentration: 0.33mM | 98.7 ± 5.1 | 104 ± 14 | 137 ± 5.8 | 107 ± 5.4
concentration: 1mM | 103 ± 9.3 | 104 ± 12 | 139.3 ± 1 | 107 ± 5

C[C@@H]1C[C@H]2[C@@H]3CCC4=CC(=O)C=C[C@]4(C)[C@@]3(F)[C@@H](O)C[C@]2(C)[C@@]1(O)C(=O)CO [Dexamethasone]
relative viability [%]
Conditions | batch: 3, lab: Lab 1 | batch: 3, lab: Lab 2 | batch: 3, lab: Lab 3 | batch: 3, lab: Lab 4
concentration: 0.11mM | 105 ± 6 | 103 ± 13 | 127 ± 13 | 112 ± 7.9
concentration: 0.33mM | 101 ± 3.8 | 97.9 ± 5.6 | 142 ± 4.4 | 111 ± 12
concentration: 1mM | 86.6 ± 7.7 | 86.4 ± 5.5 | 143 ± 5.6 | 92.2 ± 12

CCOS(C)(=O)=O [EMS (Ethyl methanesulfonate)]
relative viability [%]
Conditions | batch: 2, lab: Lab 1 | batch: 2, lab: Lab 2 | batch: 2, lab: Lab 3 | batch: 2, lab: Lab 4
concentration: 0.22mM | 95.4 ± 3.9 | 105 ± 6.5 | 98.2 ± 3.5 | 103 ± 7.2
concentration: 0.67mM | 91.7 ± 3 | 98.1 ± 5.8 | 96.6 ± 2.6 | 92.6 ± 6.2
concentration: 2mM | 85.2 ± 3.3 | 84.6 ± 2.8 | 67.7 ± 1.2 | 80.4 ± 3.7

CCN(N=O)C(N)=O [ENU (N-Nitroso-N-ethylurea)]
relative viability [%]
Conditions | batch: 2, lab: Lab 1 | batch: 2, lab: Lab 2 | batch: 2, lab: Lab 3 | batch: 2, lab: Lab 4
concentration: 0.056mM | 97.9 ± 10 | 87.58 ± 0.76 | 99.1 ± 3 | 101 ± 11
concentration: 0.167mM | 92.2 ± 6.8 | 104 ± 2.7 | 93.5 ± 2.3 | 89.3 ± 6.6
concentration: 0.5mM | 70.5 ± 4.1 | 95.6 ± 1.1 | 69.3 ± 3.2 | 76.1 ± 8.3

CCC1(c2ccccc2)C(=O)N=C([O-])NC1=O.[Na+] (centres undefined) [Phenobarbital sodium]
relative viability [%]
Conditions | batch: 4, lab: Lab 1 | batch: 4, lab: Lab 2 | batch: 4, lab: Lab 3 | batch: 4, lab: Lab 4
concentration: 0.11mM | 98.3 ± 4.8 | 85.5 ± 11 | 149 ± 13 | 95.2 ± 10
concentration: 0.33mM | 95.6 ± 4.8 | 84.2 ± 10 | 119 ± 15 | 96.8 ± 6.2
concentration: 1mM | 95.7 ± 3.7 | 82.3 ± 8.5 | 116 ± 7.6 | 99.5 ± 8.9

CN[C@@H]1C[C@H]2O[C@@](C)([C@@H]1OC)n1c3ccccc3c3c4c(c5c6ccccc6n2c5c31)C(=O)NC4 [Staurosporine]
relative viability [%]
Conditions | batch: 3, lab: Lab 1 | batch: 3, lab: Lab 2 | batch: 3, lab: Lab 3 | batch: 3, lab: Lab 4
concentration: 3nm | 104 ± 3.9 | 114 ± 16 | 130 ± 7.6 | 97.4 ± 3.9
concentration: 10nm | 103 ± 4.5 | 99.1 ± 2.1 | 111 ± 5.5 | 91.4 ± 14
concentration: 30nm | 97 ± 2.9 | 69.7 ± 3.1 | 69.7 ± 4.3 | 73.9 ± 7.5

CCN(CC)CCNC(=O)c1c(C)[nH]c(/C=C2\C(=O)Nc3ccc(F)cc32)c1C.O=C(O)C[C@H](O)C(=O)O [Sunitinib malate]
relative viability [%]
Conditions | batch: 2, lab: Lab 1 | batch: 2, lab: Lab 2 | batch: 2, lab: Lab 3 | batch: 2, lab: Lab 4
concentration: 2.22uM | 103 ± 3 | 77.8 ± 4.1 | 91.3 ± 1.2 | 99.4 ± 4.7
concentration: 6.67uM | 90.4 ± 3.5 | 64.7 ± 5.2 | 69 ± 1.6 | 86.4 ± 10
concentration: 20uM | 64.6 ± 2 | 28.5 ± 4.9 | 37 ± 1.1 | 40.8 ± 3.6
